# Data reported in patent US7375168B2, “Protein compatible methods and compounds for controlling the morphology and shrinkage of silica derived from polyol-modified silanes” (McMaster University, priority 2002, dated 2008).
# Where two headings read alike, the source gives them in different places. Ends that are not written are not given here.
# Tests used:
# [1] = biological target: T1, Src kinase, human recombinant (Homo sapiens, UniProt P12931); assay: Src PTK inhibition, free and entrapped in GLTES/DGS silica, TR-FRET detection of peptide phosphorylation; assay type: biochemical; details: substrate P1716, ATP as in FIG. 29
# T1 construct: purchased Sigma-Aldrich (Oakville, ON) S5439; host or cells: insect cells
# [2] = biological target: T2, dihydrofolate reductase (DHFR) (Escherichia coli, UniProt P0ABQ4); assay type: binding, E. coli; details: for elution time: 20 nM compounds, 100 nM fluorescein, 2 mM ammonium acetate; for elution / retention time: column with 50 pmol DHFR initial loading (FIG. 19 Panel B), compounds infused at 20 nM, fluorescein 100 nM
# T2 construct: made in house
# [3] = Src entrapped in GLTES/DGS derived silica, read-out: IC50 Entrapped in Silica
# [4] = free Src in solution, read-out: IC50 Solution
# [5] = FIG. 22 Panel A, column cut from one continuously filled capillary
# [6] = FIG. 22 Panel B, second column from the same capillary
"IC50 [1, 3]","IC50 [1, 4]",Compound,"elution time [2, 5]","elution time [2, 6]",elution / retention time [2]
0.6 to 0.8 µM,0.5 to 0.7 µM,"COc1cc2ncnc(Nc3ccc(Oc4ccccc4)cc3)c2cc1OC [Src Kinase Inhibitor I, 4-(4-phenoxyanilino)-6,7-dimethoxyquinazoline]",,,
,,O=c1ccc2ccccc2o1 [coumarin],2.7 min,2.6 min,2 min
,,Nc1nc2ncc(CNc3ccc(C(=O)N[C@@H](CCC(=O)O)C(=O)O)cc3)nc2c(=O)[nH]1 [folic acid],8.9 min,8.4 min,7 min
1000 to 1400 µM,800 to 1200 µM,YIYGSFK [YIYGSFK],,,
